Consider 28 compounds from patent US20230348369A1 (Cytokinetics, Inc., priority 2020, published 2023).

Structures are written as SMILES. pEC50: −log10 of the molar value. Read-outs that look alike come from different tables or passages of the source.

This assay addresses human NAMPT (Homo sapiens, UniProt P43490). As to the kind of experiment: Human recombinant enzyme assay (NMN fluorescence biochemical assay, activation of NAMPT). The method, then:
Compounds described herein were assayed for their ability to stimulate the synthesis of nicotinamide mononucleotide (NMN) by the enzyme NAMPT. The human recombinant enzyme assay measures the activation of the enzyme activity by compounds using recombinant enzyme and substrates in a buffered cell-free system. The assay conditions closely mimic cellular environments. Dose responses were measured using an assay to detect the formation of nicotinamide mono-nucleotide. All experiments were performed in the 384-well format. […] Enzyme reactions were initiated with the addition of 10 μL of a solution containing the substrates. The final assay conditions were as follows: 6 nM human NAMPT, 2.5 mM ATP, 20 μM PRPP and 150 μM nicotinamide in 50 mM HEPES, pH 7.2, 1 mM DTT, 1 mM CHAPS 50 mM NaCl, 100 mM MgCl2. Following an incubation of 60 min at ambient temperature, 10 μL of 20% acetophenone in DMSO was added, followed by 10 μL of 2 M KOH and 40 μL of formic acid. The plates were read for fluorescence (Excitation/Emission=355 nm/460 nm) using an EnVision plate reader after 40 mins of incubation at ambient temperature.

Setting [1] is: Table A, human recombinant NAMPT, NMN formation, 60 min.
[2] abbreviates: Table A, human recombinant NAMPT, NMN formation, 60 min, read-out: EC50 Human.

Sequence of human NAMPT (P43490 whole entry): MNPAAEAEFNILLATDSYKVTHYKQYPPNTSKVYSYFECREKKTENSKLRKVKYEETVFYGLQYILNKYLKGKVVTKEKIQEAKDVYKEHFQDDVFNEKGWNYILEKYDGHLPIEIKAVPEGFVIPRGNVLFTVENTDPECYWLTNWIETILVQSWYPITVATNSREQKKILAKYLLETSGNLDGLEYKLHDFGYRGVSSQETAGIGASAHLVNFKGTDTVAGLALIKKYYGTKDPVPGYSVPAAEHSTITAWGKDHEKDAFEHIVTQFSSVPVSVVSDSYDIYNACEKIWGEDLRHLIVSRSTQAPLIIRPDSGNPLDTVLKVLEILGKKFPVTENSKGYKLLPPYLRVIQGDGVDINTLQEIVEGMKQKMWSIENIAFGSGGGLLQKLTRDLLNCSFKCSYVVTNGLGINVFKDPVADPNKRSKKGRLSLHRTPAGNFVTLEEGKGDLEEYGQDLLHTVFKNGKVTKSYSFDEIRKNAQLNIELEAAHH

Usually pEC50 stands for the EC50 on a negative log10 scale, so that one unit is a factor of ten. As for `COc1ccc(CNC(=O)NC2CC3(CC(CN4CCCC4c4ccccc4)C3)C2)cc1` (centres unmarked) [Compound 52, 1-(4-methoxybenzyl)-3-(6-((2-phenylpyrrolidin-1-yl)methyl)spiro[3.3]heptan-2-yl)urea], the “AC1.4 Human” value under setting [1] turned out to be 4.2 µM. Also, under setting [2], the pEC50 was 4.36.
Regarding `COc1ccc(CNC(=O)NC2CC3(C2)CC(C(=O)N(C)[C@H](C)c2ccccc2F)C3)cc1` (stereo partly drawn) [Compound 53, (R)-N-(1-(2-fluorophenyl)ethyl)-6-(3-(4-methoxybenzyl)ureido)-N-methylspiro[3.3]heptane-2-carboxamide], the “AC1.4 Human” value under setting [1] worked out at 0.3 µM. Also, under setting [2], the pEC50 was 5.07.
For `COc1ccc(CNC(=O)NC2CC3(C2)CC(C(=O)NCC(C)(C)c2ccccc2C)C3)cc1` (centres unmarked) [Compound 54, 6-(3-(4-methoxybenzyl)ureido)-N-(2-methyl-2-(o-tolyl)propyl)spiro[3.3]heptane-2-carboxamide], the “AC1.4 Human” value under setting [1] stood at 1.4 µM. Also, the pEC50 under setting [2] was 4.53.
As for `COc1ccc(CNC(=O)NC2CC3(C2)CC(C(=O)NCC(C)(C)c2ccccc2F)C3)cc1` (centres unmarked) [Compound 55, N-(2-(2-fluorophenyl)-2-methylpropyl)-6-(3-(4-methoxybenzyl)ureido)spiro[3.3]heptane-2-carboxamide], under setting [1], the “AC1.4 Human” value stood at 1.1 µM. For the same compound, the pEC50 under setting [2] was 4.39.
Take `COc1ccc(CNC(=O)NC2CC3(C2)CC(C(=O)NCc2ccccn2)C3)cc1` (centres unmarked) [Compound 56, 6-(3-(4-methoxybenzyl)ureido)-N-(pyridin-2-ylmethyl)spiro[3.3]heptane-2-carboxamide]: the “AC1.4 Human” value under setting [1] worked out at 9.0 µM. Besides, the pEC50 under setting [2] was 4.32.
On to `COc1ccc(CNC(=O)NC2CC3(C2)CC(C(=O)N2CCC(c4ccccc4)C2)C3)cc1` (centres unmarked) [Compound 57, 1-(4-methoxybenzyl)-3-(6-(3-phenylpyrrolidine-1-carbonyl)spiro[3.3]heptan-2-yl)urea], for which, under setting [1], the “AC1.4 Human” value stood at 1.0 µM. In addition, the pEC50 under setting [2] is 4.59.
With `COc1ccc(CNC(=O)NC2CC3(C2)CC(C(=O)N2CCCC2c2ccncc2)C3)cc1` (centres unmarked) [Compound 58, 1-(4-methoxybenzyl)-3-(6-(2-(pyridin-4-yl)pyrrolidine-1-carbonyl)spiro[3.3]heptan-2-yl)urea], the “AC1.4 Human” value under setting [1] was 11.3 µM. In addition, the pEC50 under setting [2] was 4.40.
Taken in the same sequence, the figures for `COc1ccc(CNC(=O)NC2CC3(C2)CC(C(=O)N2CCC[C@@H]2c2cccnc2)C3)cc1` (stereo partly drawn) [Compound 59, (R)-1-(4-methoxybenzyl)-3-(6-(2-(pyridin-3-yl)pyrrolidine-1-carbonyl)spiro[3.3]heptan-2-yl)urea] were 11.2 µM and 4.39.
On to `COc1ccc(CNC(=O)NC2CC3(C2)CC(C(=O)N(C)[C@@H](C)c2ccccc2F)C3)cc1` (stereo partly drawn) [Compound 60, (S)-N-(1-(2-fluorophenyl)ethyl)-6-(3-(4-methoxybenzyl)ureido)-N-methylspiro[3.3]heptane-2-carboxamide], for which, under setting [1], the “AC1.4 Human” value is 0.3 µM. For the same compound, the pEC50 under setting [2] is 5.21.
Consider `COc1ccc(CNC(=O)NC2CC3(C2)CC(C(=O)N2CC(c4ccccc4)C2)C3)cc1` (centres unmarked) [Compound 61, 1-(4-methoxybenzyl)-3-(6-(3-phenylazetidine-1-carbonyl)spiro[3.3]heptan-2-yl)urea], for which the “AC1.4 Human” value under setting [1] came out at 2.5 µM. Moreover, the pEC50 under setting [2] is 4.46.
Regarding `COc1ccc(CNC(=O)NC2CC3(C2)CC(C(=O)N2CCN(C(=O)c4ccccc4)CC2)C3)cc1` (centres unmarked) [Compound 62, 1-(6-(4-benzoylpiperazine-1-carbonyl)spiro[3.3]heptan-2-yl)-3-(4-methoxybenzyl)urea], under setting [1], the “AC1.4 Human” value was found to be 1.2 µM. The pEC50 under setting [2] was 4.63.
Taken in the same sequence, the figures for `COc1ccc(CNC(=O)NC2CC3(C2)CC(C(=O)N[C@H]2C[C@H](c4ccccc4)C2)C3)cc1` (some centres unmarked) [Compound 63, 6-(3-(4-methoxybenzyl)ureido)-N-((1r,3r)-3-phenylcyclobutyl)spiro[3.3]heptane-2-carboxamide] were 4.4 µM and 5.36.
In the case of `COc1ccc(CNC(=O)NC2CC3(C2)CC(C(=O)NCC(C)(C)c2ccccc2OC)C3)cc1` (centres unmarked) [Compound 64, 6-(3-(4-methoxybenzyl)ureido)-N-(2-(2-methoxyphenyl)-2-methylpropyl)spiro[3.3]heptane-2-carboxamide], the “AC1.4 Human” value under setting [1] was found to be 1.4 µM. The pEC50 under setting [2] was 4.30.
Turning to `COc1ccc(CNC(=O)NC2CC3(C2)CC(C(=O)NCC(C)(C)c2ccccn2)C3)cc1` (centres unmarked) [Compound 65, 6-(3-(4-methoxybenzyl)ureido)-N-(2-methyl-2-(pyridin-2-yl)propyl)spiro[3.3]heptane-2-carboxamide], the “AC1.4 Human” value under setting [1] came to 2.6 µM. Also, the pEC50 under setting [2] is 4.30.
Turning to `COc1ccc(CNC(=O)NC2CC3(C2)CC(C(=O)NCC(C)(C)c2cccnc2)C3)cc1` (centres unmarked) [Compound 66, 6-(3-(4-methoxybenzyl)ureido)-N-(2-methyl-2-(pyridin-3-yl)propyl)spiro[3.3]heptane-2-carboxamide], the “AC1.4 Human” value under setting [1] is 3.3 µM. For the same compound, the pEC50 under setting [2] is 4.42.
Take `COc1ccc(CNC(=O)NC2CC3(CC(CC(=O)N(C)Cc4ccccc4)C3)C2)cc1` (centres unmarked) [Compound 67, N-benzyl-2-(6-(3-(4-methoxybenzyl)ureido)spiro[3.3]heptan-2-yl)-N-methylacetamide]: the pEC50 was 4.44. The “AC1.4 Human” value under setting [1] amounted to 2.3 µM.
`COc1ccc(CNC(=O)NC2CC3(C2)CC(C(=O)NCc2ccccc2)C3)cc1` (centres unmarked) [Compound 68, N-benzyl-6-(3-(4-methoxybenzyl)ureido)spiro[3.3]heptane-2-carboxamide]: under setting [1], the “AC1.4 Human” value was found to be 5.1 µM. For the same compound, under setting [2], the pEC50 is 4.34.
As to `COc1ccc(CNC(=O)NC2CC3(C2)CC(C(=O)NCCc2ccccc2)C3)cc1` (centres unmarked) [Compound 69, 6-(3-(4-methoxybenzyl)ureido)-N-phenethylspiro[3.3]heptane-2-carboxamide], the pEC50 was 4.42. Moreover, the “AC1.4 Human” value under setting [1] turned out to be 4.7 µM.
Turning to `COc1ccc(CNC(=O)NC2CC3(C2)CC(C(=O)NC(C)(C)c2ccccc2)C3)cc1` (centres unmarked) [Compound 70, 6-(3-(4-methoxybenzyl)ureido)-N-(2-phenylpropan-2-yl)spiro[3.3]heptane-2-carboxamide], the negative-log EC50 (pEC50) was 4.41. In addition, the “AC1.4 Human” value under setting [1] came out at 3.9 µM.
As to `COc1ccc(CNC(=O)NC2CC3(C2)CC(C(=O)NCCc2cn[nH]c2)C3)cc1` (centres unmarked) [Compound 75, N-(2-(1H-pyrazol-4-yl)ethyl)-6-(3-(4-methoxybenzyl)ureido)spiro[3.3]heptane-2-carboxamide], under setting [1], the “AC1.4 Human” value came to 11.5 µM. Besides, under setting [2], the pEC50 is 4.38.
Consider `COc1ccc(CNC(=O)NC2CC3(C2)CC(C(=O)NCc2ccc(C#N)cc2F)C3)cc1` (centres unmarked) [Compound 77, N-(4-cyano-2-fluorobenzyl)-6-(3-(4-methoxybenzyl)ureido)spiro[3.3]heptane-2-carboxamide], for which, under setting [1], the “AC1.4 Human” value was found to be 7.2 µM. Moreover, under setting [2], the pEC50 was 4.45.
As for `COc1ccc(CNC(=O)NC2CC3(C2)CC(C(=O)NC2CC(c4ccncc4)C2)C3)cc1` (centres unmarked) [Compound 78, 6-(3-(4-methoxybenzyl)ureido)-N-(3-(pyridin-4-yl)cyclobutyl)spiro[3.3]heptane-2-carboxamide], the “AC1.4 Human” value under setting [1] was 4.4 µM. Further, under setting [2], the pEC50 was 4.34.
Take `COc1ccc(CNC(=O)NC2CC3(C2)CC(C(=O)NCC(C)(C)c2ccncc2)C3)cc1` (centres unmarked) [Compound 80, 6-(3-(4-methoxybenzyl)ureido)-N-(2-methyl-2-(pyridin-4-yl)propyl)spiro[3.3]heptane-2-carboxamide]: the “AC1.4 Human” value under setting [1] was 2.4 µM. Further, under setting [2], the pEC50 was 4.34.
With `COc1ccc(CNC(=O)N[C@H]2C[C@]3(CCN(C(=O)OC(C)(C)C)C3)C2)cc1` [Compound 81, tert-butyl (2r,4s)-2-(3-(4-methoxybenzyl)ureido)-6-azaspiro[3.4]octane-6-carboxylate], under setting [1], the “AC1.4 Human” value is 12.5 µM. For the same compound, under setting [2], the pEC50 was 4.43.
The like results for `COc1ccc(CNC(=O)N[C@H]2C[C@@]3(CCN(C(=O)OC(C)(C)C)C3)C2)cc1` [Compound 82, tert-butyl (2s,4r)-2-(3-(4-methoxybenzyl)ureido)-6-azaspiro[3.4]octane-6-carboxylate] were, in that order, 10.7 µM and 4.28.
With `COc1ccc(CNC(=O)NC2CC3(C2)CC(C(=O)Nc2ccccc2)C3)cc1` (centres unmarked) [Compound 86, 6-(3-(4-methoxybenzyl)ureido)-N-phenylspiro[3.3]heptane-2-carboxamide], the “AC1.4 Human” value under setting [1] stood at 4.7 µM. Also, the pEC50 under setting [2] was 4.31.
The like results for `COc1ccc(CNC(=O)NC2CC3(C2)CC(C(=O)NCc2ccnc(OC(F)F)c2)C3)cc1` (centres unmarked) [Compound 88, N-((2-(difluoromethoxy)pyridin-4-yl)methyl)-6-(3-(4-methoxybenzyl)ureido)spiro[3.3]heptane-2-carboxamide] were, in that order, 16.3 µM and 4.31.
Taken in the same sequence, the figures for `COc1ccc(CNC(=O)NC2CC3(C2)CC(C(=O)Nc2ccc4nncn4c2)C3)cc1` (centres unmarked) [Compound 89, N-([1,2,4]triazolo[4,3-a]pyridin-6-yl)-6-(3-(4-methoxybenzyl)ureido)spiro[3.3]heptane-2-carboxamide] were 10.3 µM and 4.47.
